In PMC12808100, “The non-catalytic DNA polymerase ε subunit is an NPF motif recognition protein” (Nature Communications, 2025):
Residues, ends and D or L forms follow the SMILES beside them.

Tests used:
GYPC = molecular target: T1, GYPC (Homo sapiens, UniProt P04921); test: nHU-MS peptide bait, prey GYPC
T1 sequence (P04921 1-128): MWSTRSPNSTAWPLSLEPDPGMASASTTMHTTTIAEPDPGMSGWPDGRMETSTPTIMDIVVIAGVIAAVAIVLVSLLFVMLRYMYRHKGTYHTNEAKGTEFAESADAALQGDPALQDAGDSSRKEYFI

UBE2N = molecular target: T2, UBE2N (Homo sapiens, UniProt P61088); test: nHU-MS peptide bait, prey UBE2N
T2 sequence (P61088 1-152): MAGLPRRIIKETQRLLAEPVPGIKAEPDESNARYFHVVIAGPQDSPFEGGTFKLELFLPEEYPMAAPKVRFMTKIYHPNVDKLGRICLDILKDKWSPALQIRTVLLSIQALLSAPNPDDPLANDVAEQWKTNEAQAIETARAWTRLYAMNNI

TMA7 = TMA7 (Homo sapiens, UniProt Q9Y2S6); test: nHU-MS peptide bait, prey TMA7
GNB4 = GNB4 (Homo sapiens, UniProt Q9HAV0); test: nHU-MS peptide bait, prey GNB4
EHD4 = molecular target: T3, EHD4 (Homo sapiens, UniProt Q9H223); test: nHU-MS peptide bait, prey EHD4
T3 sequence (Q9H223 1-541): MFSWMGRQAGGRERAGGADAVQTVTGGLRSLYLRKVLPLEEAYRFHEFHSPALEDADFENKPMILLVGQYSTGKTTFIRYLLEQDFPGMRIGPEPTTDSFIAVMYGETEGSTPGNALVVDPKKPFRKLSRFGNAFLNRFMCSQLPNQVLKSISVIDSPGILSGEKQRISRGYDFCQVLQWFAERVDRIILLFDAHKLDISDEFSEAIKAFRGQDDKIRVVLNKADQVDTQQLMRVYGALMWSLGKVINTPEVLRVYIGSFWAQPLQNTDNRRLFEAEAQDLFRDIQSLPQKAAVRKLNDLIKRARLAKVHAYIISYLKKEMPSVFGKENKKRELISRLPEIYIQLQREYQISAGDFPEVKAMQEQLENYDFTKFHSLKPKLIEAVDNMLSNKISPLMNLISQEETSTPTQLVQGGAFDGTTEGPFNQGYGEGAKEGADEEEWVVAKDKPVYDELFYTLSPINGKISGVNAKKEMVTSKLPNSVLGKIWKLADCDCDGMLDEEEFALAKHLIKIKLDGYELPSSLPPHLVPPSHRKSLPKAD

ASXL2 = molecular target: T4, ASXL2 (Homo sapiens, UniProt Q76L83); test: nHU-MS peptide bait, prey ASXL2
T4 sequence (Q76L83 1-1435): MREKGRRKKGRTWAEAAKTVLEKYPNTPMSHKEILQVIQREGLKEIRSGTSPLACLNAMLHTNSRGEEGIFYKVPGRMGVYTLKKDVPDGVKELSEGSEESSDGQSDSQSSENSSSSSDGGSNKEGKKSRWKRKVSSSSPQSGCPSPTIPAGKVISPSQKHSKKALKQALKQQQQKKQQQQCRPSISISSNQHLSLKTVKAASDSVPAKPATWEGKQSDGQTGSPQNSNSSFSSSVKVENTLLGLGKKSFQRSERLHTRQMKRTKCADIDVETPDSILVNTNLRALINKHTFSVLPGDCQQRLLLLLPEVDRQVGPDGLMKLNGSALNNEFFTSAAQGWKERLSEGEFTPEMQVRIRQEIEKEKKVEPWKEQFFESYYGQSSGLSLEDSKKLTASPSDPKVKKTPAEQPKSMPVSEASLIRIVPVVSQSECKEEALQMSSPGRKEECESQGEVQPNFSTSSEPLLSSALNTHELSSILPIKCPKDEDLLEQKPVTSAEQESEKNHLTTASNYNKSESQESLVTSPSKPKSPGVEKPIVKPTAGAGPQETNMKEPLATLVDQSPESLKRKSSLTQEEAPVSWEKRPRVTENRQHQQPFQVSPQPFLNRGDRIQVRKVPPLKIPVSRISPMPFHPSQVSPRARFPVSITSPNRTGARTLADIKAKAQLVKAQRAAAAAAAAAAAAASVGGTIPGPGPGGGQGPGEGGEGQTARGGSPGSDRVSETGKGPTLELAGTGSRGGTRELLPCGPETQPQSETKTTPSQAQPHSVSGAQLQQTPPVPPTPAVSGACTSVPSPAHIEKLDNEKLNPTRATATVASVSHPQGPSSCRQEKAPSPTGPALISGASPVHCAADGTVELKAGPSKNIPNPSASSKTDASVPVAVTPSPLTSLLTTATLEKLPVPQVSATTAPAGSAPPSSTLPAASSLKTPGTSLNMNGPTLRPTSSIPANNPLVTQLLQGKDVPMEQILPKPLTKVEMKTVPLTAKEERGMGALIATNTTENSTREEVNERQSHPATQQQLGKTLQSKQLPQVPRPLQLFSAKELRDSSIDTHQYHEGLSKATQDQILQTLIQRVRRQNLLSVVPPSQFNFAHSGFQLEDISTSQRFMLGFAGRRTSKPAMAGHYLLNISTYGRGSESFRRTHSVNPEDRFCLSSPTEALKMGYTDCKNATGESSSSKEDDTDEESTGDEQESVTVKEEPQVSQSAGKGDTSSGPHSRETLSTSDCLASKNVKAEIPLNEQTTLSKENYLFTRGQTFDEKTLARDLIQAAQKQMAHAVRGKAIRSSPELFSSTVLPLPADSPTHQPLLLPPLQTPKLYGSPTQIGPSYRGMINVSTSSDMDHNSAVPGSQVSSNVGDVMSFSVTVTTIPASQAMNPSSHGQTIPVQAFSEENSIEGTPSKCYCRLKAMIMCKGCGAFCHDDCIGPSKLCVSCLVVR

TXNL4B = molecular target: T5, TXNL4B (Homo sapiens, UniProt Q9NX01); test: nHU-MS peptide bait, prey TXNL4B
T5 sequence (Q9NX01 1-149): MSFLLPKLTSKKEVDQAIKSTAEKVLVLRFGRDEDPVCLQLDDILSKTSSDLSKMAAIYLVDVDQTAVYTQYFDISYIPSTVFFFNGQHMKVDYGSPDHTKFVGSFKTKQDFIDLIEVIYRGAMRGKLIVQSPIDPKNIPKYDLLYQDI

TXNRD3 = molecular target: T6, TXNRD3 (Homo sapiens, UniProt Q86VQ6); test: nHU-MS peptide bait, prey TXNRD3
T6 sequence (Q86VQ6 1-643): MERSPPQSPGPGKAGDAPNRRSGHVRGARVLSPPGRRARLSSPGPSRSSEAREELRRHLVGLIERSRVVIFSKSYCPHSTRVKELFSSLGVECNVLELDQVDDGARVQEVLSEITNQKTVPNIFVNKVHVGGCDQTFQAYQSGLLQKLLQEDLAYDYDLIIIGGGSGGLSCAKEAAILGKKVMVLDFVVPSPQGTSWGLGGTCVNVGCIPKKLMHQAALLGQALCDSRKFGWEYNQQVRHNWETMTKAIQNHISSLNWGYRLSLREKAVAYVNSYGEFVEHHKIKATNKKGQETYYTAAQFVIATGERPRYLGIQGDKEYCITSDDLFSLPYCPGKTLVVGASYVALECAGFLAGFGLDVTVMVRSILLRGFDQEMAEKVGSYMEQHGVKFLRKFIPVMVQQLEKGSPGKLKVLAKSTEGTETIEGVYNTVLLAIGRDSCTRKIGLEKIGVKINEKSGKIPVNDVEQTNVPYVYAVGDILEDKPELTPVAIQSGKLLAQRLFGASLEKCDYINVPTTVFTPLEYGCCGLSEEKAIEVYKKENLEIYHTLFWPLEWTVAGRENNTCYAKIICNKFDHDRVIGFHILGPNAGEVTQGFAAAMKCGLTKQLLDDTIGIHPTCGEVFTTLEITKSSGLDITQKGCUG

TMA7, sequence (Q9Y2S6 whole entry): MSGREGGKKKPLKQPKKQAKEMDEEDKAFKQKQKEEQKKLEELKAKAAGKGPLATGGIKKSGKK
GNB4, sequence (Q9HAV0 2-340 limits assumed): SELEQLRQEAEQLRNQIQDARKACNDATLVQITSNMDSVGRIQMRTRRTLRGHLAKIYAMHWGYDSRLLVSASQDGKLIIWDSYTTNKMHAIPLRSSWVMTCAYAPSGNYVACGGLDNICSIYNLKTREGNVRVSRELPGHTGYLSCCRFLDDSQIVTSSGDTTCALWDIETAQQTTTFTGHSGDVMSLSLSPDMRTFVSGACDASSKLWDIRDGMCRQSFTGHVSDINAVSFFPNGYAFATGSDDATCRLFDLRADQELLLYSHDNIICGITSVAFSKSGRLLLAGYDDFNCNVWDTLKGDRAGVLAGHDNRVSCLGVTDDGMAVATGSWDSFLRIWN
GNB4, sequence (P59768 2-68 partner limits assumed): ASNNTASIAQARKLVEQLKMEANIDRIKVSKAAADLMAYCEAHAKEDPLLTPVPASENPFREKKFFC

Q: How did the Kd (GYPC) turn out when `CC(C)[C@H](NC(=O)[C@H](CCCCN)NC(=O)[C@H](Cc1ccccc1)NC(=O)[C@@H]1CCCN1C(=O)[C@H](CC(N)=O)NC(=O)[C@@H](NC(=O)[C@H](CCCNC(=N)N)NC(=O)CNC(=O)[C@H](CCC(N)=O)NC(=O)[C@H](CO)NC(=O)[C@@H](N)CO)C(C)C)C(=O)N[C@@H](CO)C(=O)N[C@@H](C)C(=O)N[C@@H](CO)C(=O)N[C@@H](CO)C(=O)N[C@@H](CCCCN)C(=O)N[C@@H](CCC(=O)O)C(=O)N1CCC[C@H]1C(=O)N[C@@H](C)C(N)=O` [WDHD1 906-924] (H-SSQGRVNPFKVSASSKEPA-NH2) was run?
A: 18.6 µM

Q: What about the BI (GYPC; prey GYPC, MS4_Varjosalo) of the same molecule?
A: 0.35

Q: And the Kd (UBE2N)?
A: 20.8 µM

Q: And the BI (UBE2N; prey UBE2N, MS4_Varjosalo)?
A: 0.3252

Q: And the Kd (TMA7)?
A: 13.4 µM

Q: What about the BI (TMA7; prey TMA7, MS7_Varjosalo) of the same molecule?
A: 0.4275

Q: And the Kd (GNB4)?
A: 12.7 µM

Q: What about the BI (GNB4; prey GNB4, MS7_Varjosalo) of the same molecule?
A: 0.4407

Q: And the Kd (EHD4)?
A: 18.9 µM

Q: And the BI (EHD4; prey EHD4, MS4_Varjosalo)?
A: 0.3455

Q: Which Kd (ASXL2) does the source give for `CC[C@H](C)[C@H](NC(=O)[C@H](CC(N)=O)NC(=O)[C@@H](NC(=O)[C@H](CCC(N)=O)NC(=O)[C@@H]1CCCN1C(=O)[C@@H](NC(=O)[C@H](CCC(N)=O)NC(=O)[C@H](CCCNC(=N)N)NC(=O)CCCCCNC(=O)CCCC[C@@H]1SC[C@@H]2NC(=O)N[C@@H]21)[C@@H](C)O)C(C)C)C(=O)N[C@@H](CC(N)=O)C(=O)N1CCC[C@H]1C(=O)N[C@@H](Cc1ccccc1)C(=O)N[C@H](C(=O)N1CCC[C@H]1C(=O)N[C@@H](CC(=O)O)C(=O)N[C@@H](CO)C(=O)N[C@@H](CC(C)C)C(=O)N[C@@H](CC(C)C)C(=O)N[C@@H](CC(C)C)C(=O)N[C@@H](Cc1c[nH]cn1)C(=O)N[C@@H](CO)C(N)=O)[C@@H](C)O` [WEE1] (HELM PEPTIDE1{[O=C1N[C@H]2[C@H](CS[C@H]2CCCCC(=O)[*:2])N1].[O=C(CCCCCN[*:1])[*:2]].R.Q.T.P.Q.V.N.I.N.P.F.T.P.D.S.L.L.L.H.S.[am]}$$$$V2.0) here?
A: 5.55 µM

Q: What about the BI (ASXL2; prey ASXL2, MS7_Varjosalo) of the same molecule?
A: 0.643

Q: And the log2FC (ASXL2; prey ASXL2, MS7_Varjosalo)?
A: -1.486

Q: And the Kd (TXNL4B)?
A: 7.39 µM

Q: What about the BI (TXNL4B; prey TXNL4B, MS7_Varjosalo) of the same molecule?
A: 0.575

Q: And the log2FC (TXNL4B; prey TXNL4B, MS7_Varjosalo)?
A: -1.234

Q: And the Kd (TXNRD3)?
A: 6.85 µM

Q: What about the BI (TXNRD3; prey TXNRD3, MS7_Varjosalo) of the same molecule?
A: 0.5933

Q: What about the log2FC (TXNRD3; prey TXNRD3, MS7_Varjosalo) of the same molecule?
A: -1.298
